We go through 38 compounds from patent US8664257B2, “Oxygen-substituted 3-heteroaroylamino-propionic acid derivatives and their use as pharmaceuticals” (Sanofi, priority 2010, dated 2014).

Molecules are shown by their SMILES.

As usually defined, the IC50 is the concentration needed to halve the response being measured.

The target in the first experiment is T1, Recombinant human cathepsin A (Homo sapiens, UniProt P10619).
T1 construct: Recombinant human cathepsin A (residues 29-480, with a C-terminal 10-His tag); 10-His (C); purchased R&D Systems 1049-SE
T1 sequence (P10619 29-312 limits assumed): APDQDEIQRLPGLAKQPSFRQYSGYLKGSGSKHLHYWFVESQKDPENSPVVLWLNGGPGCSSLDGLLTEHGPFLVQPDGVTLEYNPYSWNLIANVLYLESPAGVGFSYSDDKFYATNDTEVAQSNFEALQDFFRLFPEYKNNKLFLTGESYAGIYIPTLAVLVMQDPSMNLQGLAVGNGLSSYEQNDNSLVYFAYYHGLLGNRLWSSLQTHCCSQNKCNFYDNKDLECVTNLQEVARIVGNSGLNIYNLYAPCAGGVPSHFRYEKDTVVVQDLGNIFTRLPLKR
T1 sequence (P10619 327-480 limits assumed): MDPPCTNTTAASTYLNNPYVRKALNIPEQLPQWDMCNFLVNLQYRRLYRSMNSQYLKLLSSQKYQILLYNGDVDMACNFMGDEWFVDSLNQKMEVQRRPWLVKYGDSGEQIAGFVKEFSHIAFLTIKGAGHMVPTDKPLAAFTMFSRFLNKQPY
Nature of the experiment: Cathepsin A inhibitory activity. Type of experiment: biochemical. The conditions noted are these: pharmacological test "Cathepsin A inhibitory activity"; IC50 given as class A/B/C; read-out: Activity (2): Cathepsin A inhibitory activity, IC50 class. As for the experimental part:
a) Cathepsin A Inhibitory Activity
Recombinant human cathepsin A (residues 29-480, with a C-terminal 10-His tag; R&D Systems, #1049-SE) was proteolytically activated with recombinant human cathepsin L (R&D Systems, #952-CY). Briefly, cathepsin A was incubated at 10 μg/ml with cathepsin L at 1 μg/ml in activation buffer (25 mM 2-(morpholin-4-yl)-ethanesulfonic acid (MES), pH 6.0, containing 5 mM dithiothreitol (DTT)) for 15 min at 37° C. Cathepsin L activity was then stopped by the addition of the cysteine protease inhibitor E-64 (N-(trans-epoxysuccinyl)-L-leucine-4-guanidinobutylamide; Sigma-Aldrich, #E3132; dissolved in activation buffer/DMSO) to a final concentration of 10 μM.
The activated cathepsin A was diluted in assay buffer (25 mM MES, pH 5.5, containing 5 mM DTT) and mixed with the test compound (dissolved in assay buffer containing (v/v) 3% DMSO) or, in the control experiments, with the vehicle in a multiple assay plate. After incubation for 15 min at room temperature, as substrate then bradykinin carrying an N-terminal®Bodipy FL (4,4-difluoro-5,7-dimethyl-4-bora-3a,4a-diaza-s-indacene-3-propionyl) label (JPT Peptide Technologies GmbH; dissolved in assay buffer) was added to the mixture. The final concentration of cathepsin A was 833 ng/ml and the final concentration of labeled bradykinin 2 μM. After incubation for 15 min at room temperature the reaction was stopped by the addition of stop buffer (130 mM 2-(4-(2-hydroxy-ethyl)-piperazin-1-yl)-ethanesulfonic acid, pH 7.4, containing (v/v) 0.013% Triton X-100, 0.13% Coating Reagent 3 (Caliper Life Sciences), 6.5% DMSO and 20 μM ebelactone B (Sigma, # E0886)).
Uncleaved substrate and product were then separated by a microfluidic capillary electrophoresis on a LabChip® 3000 Drug Discovery System (12-Sipper-Chip; Caliper Life Sciences) and quantified by determination of the respective peak areas. Substrate turnover was calculated by dividing product peak area by the sum of substrate and product peak areas, and the enzyme activity and the inhibitory effect of the test compound thus quantified. From the percentage of inhibition of cathepsin A activity observed with the test compound at several concentrations, the inhibitory concentration IC50, i.e. the concentration which effects 50% inhibition of enzyme activity was, calculated.
Take `O=C(O)C[C@H](NC(=O)c1cc(O)n(-c2ccc(F)cc2F)n1)c1ccc(Cl)cc1` [Example 200]: the IC50 lay in the range of 0.1 to 1 µM. The same measure, in the same setting: the same measure for `O=C(O)CC(NC(=O)c1cc(O)n(-c2ccccc2F)n1)c1cccc(C(F)(F)F)c1Cl` (stereo not drawn) [Example 245]: 0.1 to 1 µM.

For the compound `O=C(O)C[C@H](NC(=O)c1cc(O)n(-c2ccc(F)cc2F)n1)c1ccc(C(F)(F)F)cc1` [Example 185], the IC50 is 0.1 to 1 µM.

Still in this experiment, the particulars now being: read-out: Activity (2): Cathepsin A inhibitory activity (IC50 class).
For `Cc1ccccc1[C@H](CC(=O)O)NC(=O)c1cc(OCc2c(F)cccc2F)n(-c2ccccc2F)n1` [Example 644], the IC50 is below 0.1 µM. Same read-out and setting: the same measure for `CC(C)(C)[C@@H](O)COc1cc(C(=O)N[C@@H](CC(=O)O)c2ccc(Cl)cc2Cl)nn1-c1ccccc1F` [Example 753, (S)-3-(2,4-Dichloro-phenyl)-3-{[1-(2-fluoro-phenyl)-5-((R)-2-hydroxy-3,3-dimethyl-butoxy)-1H-pyrazole-3-carbonyl]-amino}-propionic acid]: below 0.1 µM; for `Cc1ccccc1[C@H](CC(=O)O)NC(=O)c1cc(OCCCF)n(-c2ccccc2F)n1` [Example 641]: below 0.1 µM.

`Cc1ccccc1[C@H](CC(=O)O)NC(=O)c1cc(OC2CCCCC2)n(-c2ccccc2F)n1` [Example 631]: the IC50 is below 0.1 µM. The same measure, in the same setting: under `Cc1ccc([C@H](CC(=O)O)NC(=O)c2cc(OC[C@H](O)C(C)(C)C)n(-c3ccccc3F)n2)cc1` [Example 788, (S)-3-{[1-(2-Fluoro-phenyl)-5-((R)-2-hydroxy-3,3-dimethyl-butoxy)-1H-pyrazole-3-carbonyl]-amino}-3-p-tolyl-propionic acid] stands below 0.1 µM. The same measure, in the same setting: under `COc1ccccc1[C@H](CC(=O)O)NC(=O)c1cc(OC[C@@](C)(O)C(C)C)n(-c2ccccc2F)n1` [Example 783, (S)-3-{[1-(2-Fluoro-phenyl)-5-((S)-2-hydroxy-2,3-dimethyl-butoxy)-1H-pyrazole-3-carbonyl]-amino}-3-(2-methoxy-phenyl)-propionic acid] stands below 0.1 µM. For the compound `CCC(O)(CC)COc1cc(C(=O)N[C@@H](CC(=O)O)c2ccc(Cl)cc2Cl)nn1-c1ccccc1F` [Example 762, (S)-3-(2,4-Dichloro-phenyl)-3-{[5-(2-ethyl-2-hydroxy-butoxy)-1-(2-fluoro-phenyl)-1H-pyrazole-3-carbonyl]-amino}-propionic acid], the IC50 was below 0.1 µM. Same read-out and setting: the same measure for `COc1ccc(-c2ccccc2)cc1C(CC(=O)O)NC(=O)c1cc(O)n(-c2ccccc2F)n1` (stereo not drawn) [Example 556, 3-{[1-(2-Fluoro-phenyl)-5-hydroxy-1H-pyrazole-3-carbonyl]-amino}-3-(4-methoxy-biphenyl-3-yl)-propionic acid]: 1 to 30 µM. Same read-out and setting: the same measure for `CCOc1cc(C(=O)N[C@@H](CC(=O)O)c2cccc(OC)c2)nn1-c1ccccc1F` [Example 711]: 0.1 to 1 µM; for `O=C(O)CC(NC(=O)c1cc(O)n(-c2ccccc2)n1)c1ccc(-c2ccccc2Cl)cc1` (stereo not drawn) [Example 539]: 0.1 to 1 µM.

Still in this experiment, the particulars now being: read-out: Activity (2): Cathepsin A inhibitory activity, IC50 class.
For the compound `COc1cc(C(=O)N[C@@H](CC(=O)O)c2ccccc2C)nn1-c1ccccc1F` [Example 129, (S)-3-{[1-(2-Fluoro-phenyl)-5-methoxy-1H-pyrazole-3-carbonyl]-amino}-3-o-tolyl-propionic acid], the concentration for half-maximal inhibition (IC50) is below 0.1 µM.

On to `O=C(O)CC(NC(=O)c1cc(O)n(-c2ccc(Cl)cc2)n1)c1ccc(Oc2ccccc2)cc1` (stereo not drawn) [Example 294], for which the IC50 was 1 to 30 µM. The same measure, in the same setting: the same measure for `N#Cc1ccc([C@H](CC(=O)O)NC(=O)c2cc(O)n(-c3ccc(Cl)cc3)n2)cc1` [Example 272]: 1 to 30 µM. For `Cc1ccc(C)c(-n2nc(C(=O)NC(CC(=O)O)c3ccc(-c4ccccc4)cc3)cc2O)c1` (stereo not drawn) [Example 55], the IC50 fell in the range of 0.1 to 1 µM. With `Cc1cccc(C(CC(=O)O)NC(=O)c2cc(O)n(-c3ccccc3)n2)c1` (stereo not drawn) [Example 65], the IC50 lay within 0.1 to 1 µM.

As to `O=C(O)C[C@H](NC(=O)c1cc(O)n(-c2ccccc2F)n1)c1ccc(Cl)cc1` [Example 120], the IC50 fell in the range of 0.1 to 1 µM. In the case of `O=C(O)CC(NC(=O)c1cc(O)n(-c2ccccc2F)n1)c1cccc(Cl)c1Cl` (stereo not drawn) [Example 402], the IC50 is below 0.1 µM. Same read-out and setting: the same measure for `Cc1ccc(C)c(-n2nc(C(=O)NC(CC(=O)O)c3ccc(OC(F)(F)F)cc3)cc2O)c1` (stereo not drawn) [Example 31]: 1 to 30 µM. On the same count and under the same terms, the same measure for `Cc1ccc(C)c(-n2nc(C(=O)NC(CC(=O)O)c3ccc(F)cc3)cc2O)c1` (stereo not drawn) [Example 1]: 1 to 30 µM; for `Cc1ccccc1[C@H](CC(=O)O)NC(=O)c1cc(OCC(C)(O)c2ccccc2)n(-c2ccccc2F)n1` (stereo partly drawn) [Example 891, (S)-3-{[1-(2-Fluoro-phenyl)-5-(2-hydroxy-2-phenyl-propoxy)-1H-pyrazole-3-carbonyl]-amino}-3-o-tolyl-propionic acid]: below 0.1 µM.

With `Cc1ccc(C)c(-n2nc(C(=O)NC(CC(=O)O)CC(C)C)cc2O)c1` (stereo not drawn) [Example 38], the half-inhibitory concentration (IC50) was in the range of 1 to 30 µM. The same measure, in the same setting: under `COc1ccc(C(CC(=O)O)NC(=O)c2cc(O)n(-c3ccc(F)cc3)n2)c(C)c1` (stereo not drawn) [Example 337] stands 0.1 to 1 µM; under `Cc1ccccc1[C@H](CC(=O)O)NC(=O)c1cc(O)n(-c2cccc(Cl)c2)n1` [Example 75], 0.1 to 1 µM.

In the case of `O=C(O)CC(NC(=O)c1cc(O)n(-c2ccccc2)n1)c1ccc(OC(F)(F)F)cc1` (stereo not drawn) [Example 12], the IC50 fell in the range of 0.1 to 1 µM. Same read-out and setting: under `COc1ccc([C@H](CC(=O)O)NC(=O)c2cc(O)n(-c3cccc(F)c3)n2)cn1` [Example 335] stands 0.1 to 1 µM.

The experiment is the same for the next values; noted with them: recombinant human cathepsin A 833 ng/ml, Bodipy FL-labeled bradykinin 2 μM, pH 5.5; read-out: CATH-A IC50.
With `COc1cc(C(=O)N[C@@H](CC(=O)O)c2ccccc2C)nn1-c1ccccc1F` [Example 129, (S)-3-{[1-(2-Fluoro-phenyl)-5-methoxy-1H-pyrazole-3-carbonyl]-amino}-3-o-tolyl-propionic acid], the concentration for half-maximal inhibition (IC50) is 0.0412 µM.

Take `CC(C)(C)[C@@H](O)COc1cc(C(=O)N[C@@H](CC(=O)O)c2ccc(Cl)cc2Cl)nn1-c1ccccc1F` [Example 753, (S)-3-(2,4-Dichloro-phenyl)-3-{[1-(2-fluoro-phenyl)-5-((R)-2-hydroxy-3,3-dimethyl-butoxy)-1H-pyrazole-3-carbonyl]-amino}-propionic acid]: the half-inhibitory concentration (IC50) came out at 0.345 µM. Regarding `O=C(O)CC(NC(=O)c1cc(O)n(-c2ccccc2Cl)n1)c1cc(F)ccc1Cl` (stereo not drawn) [Example 458, 3-(2-Chloro-5-fluoro-phenyl)-3-{[1-(2-chloro-phenyl)-5-hydroxy-1H-pyrazole-3-carbonyl]-amino}-propionic acid], the concentration for half-maximal inhibition (IC50) amounted to 0.223 µM. `COc1ccc(-c2ccccc2)cc1C(CC(=O)O)NC(=O)c1cc(O)n(-c2ccccc2F)n1` (stereo not drawn) [Example 556, 3-{[1-(2-Fluoro-phenyl)-5-hydroxy-1H-pyrazole-3-carbonyl]-amino}-3-(4-methoxy-biphenyl-3-yl)-propionic acid]: the IC50 was 8.65 µM.

The experiment is the same for the next values; noted with them: recombinant human cathepsin A; read-out: Activity (2): Cathepsin A inhibitory activity, IC50 class.
Turning to `O=C(O)C[C@H](NC(=O)c1cc(O)n(-c2cccc(Cl)c2)n1)c1cccc(F)c1` [Example 414], the half-inhibitory concentration (IC50) was in the range of 1 to 30 µM. As to `CCC(COC)NC(=O)C[C@H](NC(=O)c1cc(OC)n(-c2ccccc2F)n1)c1ccccc1C` (stereo partly drawn) [Example 921, 1-(2-Fluoro-phenyl)-5-methoxy-1H-pyrazole-3-carboxylic acid [(S)-2-(1-methoxymethyl-propylcarbamoyl)-1-o-tolyl-ethyl]-amide], the half-maximal inhibitory concentration (IC50) is 1 to 30 µM.

For `COCCNC(=O)C[C@H](NC(=O)c1cc(OC)n(-c2ccccc2F)n1)c1ccccc1C` [Example 935, 1-(2-Fluoro-phenyl)-5-methoxy-1H-pyrazole-3-carboxylic acid [(S)-2-(2-methoxy-ethylcarbamoyl)-1-o-tolyl-ethyl]-amide], the IC50 was below 0.1 µM. Still for that read-out and setting: the same measure for `COc1ccc(C(CC(=O)O)NC(=O)c2cc(O)n(-c3ccc(Cl)cc3)n2)c(Cl)c1` (stereo not drawn) [Example 424]: 0.1 to 1 µM; for `O=C(O)CC(NC(=O)c1cc(O)n(-c2cccnc2)n1)c1ccc(-c2ccccc2)cc1` (stereo not drawn) [Example 440]: 1 to 30 µM. Regarding `COC[C@H](C)NC(=O)C[C@H](NC(=O)c1cc(OC)n(-c2ccccc2F)n1)c1ccccc1C` [Example 937, 1-(2-Fluoro-phenyl)-5-methoxy-1H-pyrazole-3-carboxylic acid [(S)-2-((S)-2-methoxy-1-methyl-ethylcarbamoyl)-1-o-tolyl-ethyl]-amide], the 50% inhibitory concentration (IC50) is below 0.1 µM. Same read-out and setting: under `O=C(O)CC(NC(=O)c1cc(O)n(-c2ccccc2Cl)n1)c1cc(F)ccc1Cl` (stereo not drawn) [Example 458, 3-(2-Chloro-5-fluoro-phenyl)-3-{[1-(2-chloro-phenyl)-5-hydroxy-1H-pyrazole-3-carbonyl]-amino}-propionic acid] stands 0.1 to 1 µM. Still for that read-out and setting: the same measure for `Cc1ccccc1[C@H](CC(=O)O)NC(=O)c1cc(O)n(-c2ccccc2C)n1` [Example 532]: below 0.1 µM. `O=C(O)CC(NC(=O)c1cc(O)n(-c2ccccc2F)n1)c1ccc(Cl)c(Cl)c1` (stereo not drawn) [Example 407]: the concentration for half-maximal inhibition (IC50) fell in the range of 0.1 to 1 µM.

As to `O=C(O)CC(NC(=O)c1cc(O)n(-c2ccccc2F)n1)c1cc(Cl)ccc1Cl` (stereo not drawn) [Example 479], the IC50 was below 0.1 µM.
